The values below come from US5886025A, “Anti-mitotic agents which inhibit tubulin polymerization” (Baylor University, priority 1997, dated 1999).

Each structure is given as a SMILES string. Converted amounts (≈) assume the structure as drawn. “Also recorded” adds a separate entry of the source. Counter-ions that a name gives are not always drawn. Like-named read-outs stand apart in the source and are kept apart here. Bounds are passed on as bounds.

In data set [1] the test system is tubulin. In words: tubulin polymerization assay. The format is biochemical, bovine. As to the method:
The ability of the various above described compounds to inhibit tubulin polymerization can be determined by in vitro assay. A suitable assay system is that described by Bai et al A method for purifying tubulin from bovine brain cells is described by Hamel and Lin.
IC50 values for tubulin polymerization were determined according to the procedure described in Bai et al. Purified tubulin is obtained from bovine brain cells as described in Hamel and Lin. Various amounts of inhibitor were preincubated for 15 minutes at 37° C. with purified tubulin. After the incubation period, the reaction was cooled and GTP was added to induce tubulin polymerization. Polymerization was then monitored in a Gilford spectrophotometer at 350 nm. The final reaction mixtures (0.25 ml) contained 1.5 mg/ml tubulin, 0.6 mg/ml microtubule-associated proteins (MAPs), 0.5 mM GTP, 0.5 mM MgCl2, 4% DMSO and 0.1M 4-morpholineethanesulfonate buffer (MES, pH 6.4).

For data set [2], the system named is P388 leukemia cells. In words: cytotoxic assay with P388 leukemia cells. To be noted: for IC50: Mus musculus. The format is cell-based. From the text: The tubulin polymerization compounds can also be tested for their ability to inhibit tumor cell growth.
Data set [3] concerns tubulin. The conditions noted are these: cited from earlier work.
The test system of data set [4] is tubulin. To be noted: cis or Z form vs trans or E; cited from earlier work.
For data set [5] the following is noted: treatment of Chagas' disease, cited from earlier work.
Data set [6] has as its system estrogen. The conditions noted are these: cited from earlier work.
The conditions of data set [7]: relative to tamoxifen; cited from earlier work.
Where [8] appears, read: P388, read-out: ED50 (effective dosage required to inhibit 50% of cell growth).

For the molecule `COc1ccc(-c2sc3cc(OC)ccc3c2C(=O)c2c(OC)cccc2OC)cc1` [2,6-dimethoxybenzoyl, 3-(2', 6'-dimethoxybenzoyl)-2-(4'-methoxyphenyl)-6-methoxybenzo[b]thiophene], the “inhibition of tubulin polymerization” value in data set [1] was “no observable tubulin polymerization inhibition activity; also recorded: failed to inhibit tubulin polymerization”. In addition, the IC50 in data set [2] (read-out: ED50 (effective dosage required to inhibit 50% of cell growth), P388 leukemia cells) is greater than 100 µg/mL. Also, the “activity against P388 leukemia cells” value in data set [2] (P388 leukemia cells) is on record as “failed to show measurable activity”.

With `COc1cc2c(cc1O)CC[C@@H]1[C@@H]2CC[C@]2(C)[C@@H](O)CC[C@@H]12` [2-methoxyestradiol], the “inhibition of tubulin polymerization” value in data set [3] is “viable inhibitor of tubulin polymerization”.

For `COc1ccc(-c2sc3cc(OC)ccc3c2C(=O)c2cc(OC)c(O)c(OC)c2)cc1` [3,5-dimethoxy-4-hydroxybenzoyl], the “inhibition of tubulin polymerization” value in data set [1] is “no observable tubulin polymerization inhibition activity; also recorded: failed to inhibit tubulin polymerization”. Moreover, the IC50 in data set [2] (setting [8]) is greater than 100 µg/mL. Moreover, in data set [2] (P388 leukemia cells), the “activity against P388 leukemia cells” value is reported as “failed to show measurable activity”.

Regarding `COc1ccc(-c2sc3cc(OC)ccc3c2C(=O)c2cc(OC)cc(OC)c2)cc1` [3,5-dimethoxybenzoyl, 3-(3',5'-dimethoxybenzoyl)-2-(4'-methoxyphenyl)-6-methoxybenzo[b]thiophene], in data set [1], the “inhibition of tubulin polymerization” value was “no observable tubulin polymerization inhibition activity; also recorded: failed to inhibit tubulin polymerization”. In addition, the IC50 in data set [2] (setting [8]) was greater than 100 µg/mL. Moreover, the “activity against P388 leukemia cells” value in data set [2] (P388 leukemia cells) was “failed to show measurable activity”.

Turning to `COc1ccc(/C=C\c2cc(OC)c(OC)c(OC)c2)cc1N(Cc1ccccc1)Cc1ccccc1` [5-[(Z)-2-(3',4',5'-trimethoxyphenyl)ethenyl]-2-methoxy-N,N-bis-(phenylmethyl)aniline, reference compound], the IC50 in data set [2] (setting [8]) was 33.9 µg/mL (≈ 68.4 µM).

As for `COc1ccc(/C=C\c2cc(OC)c(OC)c(OC)c2)cc1O` [Combretastatin A-4], the “binding affinity for tubulin, cis (Z) form compared to trans (E) counterpart” value in data set [4] is on record as “much higher binding affinity for tubulin”.

As for `O=C(Cn1ccnc1[N+](=O)[O-])NCc1ccccc1` [benznidazole], in data set [5], the “genotoxicity in children” value is on record as “may also cause genotoxicity in children”; the “adverse effects” value was “thrombocytopenic purpura and polyneropathy”.

For the molecule `CC1CS(=O)(=O)CCN1/N=C/c1ccc([N+](=O)[O-])o1` (stereo not drawn) [nifurtimox], in data set [5], the “genotoxicity in children” value is “may also cause genotoxicity in children”; the “adverse effects” value is “thrombocytopenic purpura and polyneropathy”.

`CC/C(=C(\c1ccccc1)c1ccc(OCCN(C)C)cc1)c1ccccc1` [tamoxifen]: the “intrinsic estrogen agonist properties” value in data set [6] is listed as “retain some intrinsic estrogen agonist properties”.

For the molecule `COc1ccc(C2=C(C(=O)c3ccc(OCCN4CCCC4)cc3)c3ccccc3CC2)cc1` [trioxifene mesylate], the “anti-tumor effects compared with tamoxifen” value in data set [7] was “anti-tumor effects at the same or higher level as tamoxifen”.
